Active and inactive are the calls of the source.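 How the source made its calls: active means compounds giving half or more protection of infected cells from virus-caused growth loss, again on retest; inactive means the rest.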
Test system: CEM cells HIV-1 protection, formazan growth assay
Experiment: NCI AIDS Antiviral Assay
Conditions: for IC50: measured here: growth of uninfected CEM cells
Outline: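 Protection of CEM cells against HIV-1 measured as cell growth via soluble formazan read-out, with five concentrations tested on both infected and uninfected cells; failure to protect may reflect toxicity.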

| SMILES | EC50 [µM] | IC50 [µM] | outcome |
| --- | --- | --- | --- |
| O=c1[nH]nc2ccc(n[nH]c1=O)c1ccccc21 | > 200 | 7.41 |  |
| C=C1CCC(OC(C)=O)C2(C)C(OC(C)=O)CC3OC3(C)C2C(OC(C)=O)C2C(C)C(=O)OC2C1Cl (stereo not drawn) | > 200 | > 200 |  |
| N=C(N)/N=C(/C=C/c1ccccc1)CC1OC(=O)c2ccccc21 (stereo not drawn) | > 42.7 | > 42.7 |  |
| c1cc[c]([Sn]([S]c2cccc3cccnc23)([c]2ccccc2)[c]2ccccc2)cc1 |  |  | inactive |
| CCc1nn(S(=O)(=O)c2ccc(C)cc2)c2c1CS(=O)(=O)CC2 | > 200 | > 200 |  |
| C(=C1\CCC/C(=C/c2ccccc2)C1=NNc1ccccc1)/c1ccccc1 | > 14.5 | > 14.5 |  |
| CC(=O)Nc1ccc(C(=O)NN2C(=O)C(Cl)C2c2ccc([N+](=O)[O-])cc2)cc1 (stereo not drawn) | > 200 | 112 |  |
| COC(OC)c1cc2c(cc1C=O)OCO2 |  |  | inactive |
| CC(=O)Oc1c(Br)cc(-c2oc(-c3cc(Br)c(OC(C)=O)c(Br)c3)c3ccccc23)cc1Br | > 100 | 38.9 |  |
| Cn1cc(NC(=O)c2nc(NC(=O)c3nc(NC(=O)c4ccc(C(=O)Nc5cn(C)c(C(=O)Nc6cn(C)c(C(=O)Nc7cn(C)c(C(=O)NCCC(=N)N)n7)n6)n5)cc4)cn3C)cn2C)nc1C(=O)NCCC(=N)N | > 12.9 | 2.34 |  |
| C=CCN=C1N=C(CC(=O)OCC)CS1 |  |  | inactive |
| C#CCN1C(=O)NC(c2ccccc2)(c2ccccc2)C1=O.[C-]#[O+].[C-]#[O+].[C-]#[O+].[C-]#[O+].[C-]#[O+].[C-]#[O+].[Co].[Co] | > 200 | 8.91 |  |
| COc1nc(NC2OC(COC(C)=O)C(OC(C)=O)C(OC(C)=O)C2OC(C)=O)c(-c2csc(N)n2)c(=O)n1C (stereo not drawn) | > 6.17 | > 6.17 |  |
| CCOC(=O)c1cc(-c2ccccc2)c(OC)c(=O)nc1-c1ccccc1 | > 27.5 | > 27.5 |  |
| COCCOCC(=O)N(CCn1ccc(NC(c2ccccc2)(c2ccccc2)c2ccccc2)nc1=O)CCn1cnc2nc(N)[nH]c(=O)c21 | 28.8 | 60.3 |  |
| C=CCn1c(-c2ccc(Cl)cc2)csc1=Nc1ccccc1OC | > 200 | > 200 |  |
| O=C(Nc1ccccc1)N(C1=NCC(CI)S1)c1ccc(F)cc1F (stereo not drawn) | > 200 | 25.1 |  |
| CCCCCCNCCCNc1c2cc(OC)ccc2nc2cccc([N+](=O)[O-])c12 | > 2 | 0.347 |  |
| O=C(O)c1ccsc1Cc1cccs1 | > 200 | > 200 |  |
| CC1=C(C#N)C2C(=C(C)N1)C(N)=Nc1ccccc12 (stereo not drawn) | > 200 | 13.5 |  |
| C=C1C2CCC3(CCC4C5(C)CCCC4(C=[N+](CCO)C5)C3C2)C1O (stereo not drawn) |  |  | inactive |
| CC(C)=CCCC(C)CCN(O)CC(CO)OC(CO)n1cc(C)c(=O)[nH]c1=O (stereo not drawn) | > 200 | 135 |  |

| SMILES | EC50 [µM] | IC50 [µM] | outcome |
| --- | --- | --- | --- |
| N#CCCC1C(C#N)C2CC1C1C3C=CC(C3)C21 (stereo not drawn) | > 200 | > 200 |  |
| Cc1cc(C)nc(NC(=S)Nc2ccc(Cl)cc2)c1 | > 100 | > 100 |  |
| COc1nc2ncn(C(C)=O)c2c(=O)n1C |  |  | inactive |
| CC(C)=CC1CC(n2cc(C)c(=O)[nH]c2=O)ON1CCO[Si](C)(C)C(C)(C)C (stereo not drawn) |  |  | inactive |
| NCCSSC/C=C\CSSCCN |  |  | inactive |
| ClC(Cl)(Cl)C1CCOC1n1nc2ccccc2n1 (stereo not drawn) | > 200 | > 200 |  |
| O=C1/C(=N\O)S(=O)(=O)c2ccccc21 |  |  | inactive |
| CNC(=O)CNC(=O)c1ccccc1SC(=O)CCCC[n+]1ccccc1 | 1.95 | 22.9 |  |
| CCN1C(c2ccc(Cl)cc2)=NN2C(C)=CC(C)(C)N=C12 | > 85.1 | 60.3 |  |
| COCn1cc(C2=C(C)C(=O)C(C)=C(C)C2=O)cn1 | > 200 | 6.03 |  |
| CCN(CC)CCNc1nc2c([nH]1)c(=O)n(C)c(=O)n2C | > 759 | 219 |  |
| Cc1cc2c3c(c1)S(=O)(=O)c1cc(Cl)ccc1N3CCC2 | > 200 | > 200 |  |
| CCCS(=O)(=O)O | > 200 | > 200 |  |
| CN(C)CCCCC1c2ccccc2Sc2ccccc21 | > 200 | 8.71 |  |
| COc1ccc(C2=Nn3c(nc4sc(C)c(C)c4c3=O)SC2)cc1 | > 200 | > 200 |  |
| CN1N=C(c2ccccc2)C(C(c2ccccc2[N+](=O)[O-])C2C(=O)N(C)N=C2c2ccccc2)C1=O (stereo not drawn) | > 81.3 | 15.8 |  |
| O=C(Nc1cccc2c1C(=O)c1c(NC(=O)c3ccccc3)ccc(Nc3cccc4c3C(=O)c3ccccc3C4=O)c1C2=O)c1ccccc1 | > 200 | 120 |  |
| CC1CC[P+](c2ccccc2)(c2ccccc2)c2c1ccc1ccccc21 (stereo not drawn) | > 17.8 | 0.741 |  |
| O=C1C(=Cc2cccs2)C(=O)N(CCc2ccccc2)S(=O)(=O)N1CCc1ccccc1 | > 8.13 | > 8.13 |  |
| CCC(=N\N=C(N)N)/C(C)=N/N=C(N)N | > 23.4 | > 23.4 |  |
| CC1(C)OCC2OC3(CO)NP(=O)(N(CCCl)CCCl)OC3C2O1 (stereo not drawn) |  |  | inactive |
| CC(=O)/C=C(\c1ccccc1)c1c(O)c2ccccc2oc1=O | > 200 | 141 |  |

| SMILES | EC50 [µM] | IC50 [µM] | outcome |
| --- | --- | --- | --- |
| COc1cc(Nc2ccc3c(c2)CCC3)nc(OC)n1 | > 200 | 31.6 |  |
| CCOC(=O)C(=[N+]=[N-])C(=O)C1(C(=O)OCC)CCN(C(=O)c2ccccc2)C1=O (stereo not drawn) | > 200 | > 200 |  |
| CCc1ccc(C2=C(O)C(=O)C(c3ccccc3)=C(O)C2=O)cc1 | > 87.1 | 44.7 |  |
| NC1=NCCC1(c1ccccc1)c1ccccn1 (stereo not drawn) | > 550 | 490 |  |
| O=c1oc2ccccc2c(O)c1C(c1cc(OCc2ccccc2)cc(OCc2ccccc2)c1)c1c(O)c2ccccc2oc1=O | > 200 | 9.55 |  |
| COc1ccc(/C=C2/C[N+](C)(C)C/C(=C/c3ccc(OC)cc3)C2=O)cc1 | > 513 | 36.3 |  |
| CCCCN(CCCC)C(=O)/C(CC(=O)c1cccc2ccccc12)=N\NC(=O)c1cc2ccccc2cc1O | > 34.7 | 16.2 |  |
| Cc1ccc(-n2cc(-c3ccc(Cl)cc3)c3c2N=CN2NC(c4cccs4)=NC32)cc1 (stereo not drawn) | > 100 | 42.7 |  |
| COc1ccc2c(c1)CCN1CCc3cc(OC)c(OC)cc3CC21 (stereo not drawn) | > 200 | 61.7 |  |
| Nn1c(Cc2ccc(Cl)cc2)n[nH]c1=O | > 200 | > 200 |  |
| Clc1cc2ncn(C3CCCO3)c2cc1Cl (stereo not drawn) | > 200 | 61.7 |  |
| COc1cc(-c2coc3cc(O)ccc3c2=O)c(O)c(OC)c1OC | > 200 | 72.4 |  |
| COc1cccc(-c2nc(-c3cnccn3)n(C3OC(CO)C(O)C3O)n2)c1 (stereo not drawn) | > 200 | > 200 |  |
| COC[C@@]12CCC(OC)C34[C@@H]5C[C@@]6(O)C(OC(=O)c7ccccc7)[C@@H]5[C@](OC(C)=O)(C[C@@H]6OC)[C@@H](C(OC)[C@@H]31)[C@@H]4N(C=O)C2 (stereo partly drawn) |  |  | inactive |
| c1ccc2c(c1)oc1ccc3nsnc3c12 | > 15.8 | > 15.8 |  |
| CCC1Sc2cc(OC)cc(N)c2NC1=O (stereo not drawn) | > 200 | > 200 |  |
| Cc1nc2c(nc1Cl)nc(Oc1ccc(Cl)cc1)c1ccccc12 | > 28.2 | > 28.2 |  |
| CCCCC(CC)CN=Cc1c(O)c(O)c(C(C)C)c2cc(C)c(-c3c(C)cc4c(C(C)C)c(O)c(O)c(C=NCC(CC)CCCC)c4c3O)c(O)c12 (stereo not drawn) | > 200 | 145 |  |
| C=CC1(C)C=C2C(O)CC3C(C)(C(=O)OC)CCCC3(C)C2CC1 (stereo not drawn) | > 21.9 | 11 |  |
| Cc1csc2n(C)c(=O)c3ccccc3[n+]12 | 191 | > 200 |  |
| COc1c(OC)c(OC)c2c(=O)cc(-c3ccc4c(c3)OCO4)oc2c1OC | > 200 | > 200 |  |
| COP(=N[Si](C)(C)C)(OC)OC | > 200 | > 200 |  |

| SMILES | EC50 [µM] | IC50 [µM] | outcome |
| --- | --- | --- | --- |
| COc1cc(CNCc2cc(OC)c(OC)c(OC)c2)cc(OC)c1OC | > 200 | > 200 |  |
| CSCC1(O)CCCCC1 | > 200 | > 200 |  |
| CC(=O)Nc1ccc(-c2nnc(SCC(=O)Nc3ccc(Cl)cc3)o2)cc1 | > 89.1 | 5.01 |  |
| O=C(Nc1ccccc1SC(/C=C/NNC1=NC(c2ccccc2)C(c2ccccc2)=NN1)c1ccccc1)c1ccc(Cl)cc1Cl (stereo not drawn) | > 10.7 | > 10.7 |  |
| Cc1ccc(/C=C2\CNC/C(=C\c3ccc(C)cc3)C2=O)cc1 | > 3.98 | > 3.98 |  |
| CCc1cc2c(oc3cc(C)ccc32)c(=O)[nH]1 | > 100 | > 100 |  |
| C[N+]12C(=O)CC3OCC=C4C[N+]5(C)CCC6(c7ccccc71)C2C3C4CC65O (stereo not drawn) | > 398 | 224 |  |
| CCOC(=O)Nc1nn(C)c(=NCc2ccccc2)s1 | > 200 | > 200 |  |
| O=C(CCC[n+]1ccccc1)Sc1ccccc1C(=O)NCc1ccc2c(c1)OCO2 | > 16.6 | 3.39 |  |
| Cn1c2c(c(=O)c3cc(O)ccc31)CC(O)C(C)(C)O2 (stereo not drawn) | > 912 | 891 |  |
| CC(=O)NC1C(OCc2ccccc2)OC(CO)C(O)C1OC(C)C(=O)NC(C)C(=O)NC(CCC(=O)NCCCCNc1c2ccccc2nc2cccc([N+](=O)[O-])c12)C(N)=O (stereo not drawn) | > 200 | 0.0631 |  |
| CN(C)CN1C(=O)S/C(=C2\C(=O)N(C)c3ccc(Br)cc32)C1=O | > 200 | 24 |  |
| N#Cc1cc2c(cc1C#N)SCCSCCCSCCS2 |  |  | inactive |
| CC(C)(C)C1CCC2c3c([nH]c4ccccc34)C3C(=O)N(c4ccccc4[N+](=O)[O-])C(=O)C3C2C1 (stereo not drawn) | > 200 | 36.3 |  |
| S=c1[nH]nc2nc(Nc3ccccc3)nc(Nc3ccccc3)n12 | > 21.4 | > 21.4 |  |
| CCN(CCCl)CCCNc1c2ccccc2nc2ccc(OC)cc12 | > 20 | 0.295 |  |
| O=[N+]([O-])c1ccc(-n2nc3ccc4c(no[n+]4[O-])c3n2)cc1 | > 200 | 57.5 |  |
| COc1ccc2c(=O)oc3c(OC)cc(CCN(C)C)c4c(=O)oc1c2c34 |  |  | inactive |
| COc1cc(C2C(O)N(C)C(=O)C23CCCN3C)c(Br)cc1Br (stereo not drawn) |  |  | inactive |
| S=C(N/N=C/c1ccco1)NC12CC3CC(CC(C3)C1)C2 |  |  | inactive |
